Laboratory results reported in patent US6566355B1 (Hoffmann-La Roche Inc., priority 1991, dated 2003).
Counter-ions that a name gives are not always drawn. Like-named read-outs stand apart in the source and are kept apart here.

Tests used:
Citrobacter freundii = assay: MIC in vitro of a 1:4 combination of ceftriaxone with a compound of formula I (test D); format: cell-based; settings: 1:4 combination of ceftriaxone with the compound
Experimental: D. Determination of the β-lactamase-inhibiting activity by combination of a compound of general formula I with ceftriaxone
The minimum inhibitory concentration in vitro (MIC in μg/ml) of a 1:4 combination of ceftriaxone with a compound of formula I against Citrobacter freundii is measured and compiled in Table 2 hereinafter.

β-lactamase = molecular target: T1, β-lactamase (Citrobacter freundii, UniProt P05193); assay: biochemical
T1 construct: Various β-lactamases can be isolated from penicillin- or cephalosporin-resistant bacterial strains such as; endogenous in cells; host or cells: Citrobacter freundii 1203 (enzyme purified from the crude cell extract, after ampicillin induction when necessary)
T1 sequence (P05193 21-381): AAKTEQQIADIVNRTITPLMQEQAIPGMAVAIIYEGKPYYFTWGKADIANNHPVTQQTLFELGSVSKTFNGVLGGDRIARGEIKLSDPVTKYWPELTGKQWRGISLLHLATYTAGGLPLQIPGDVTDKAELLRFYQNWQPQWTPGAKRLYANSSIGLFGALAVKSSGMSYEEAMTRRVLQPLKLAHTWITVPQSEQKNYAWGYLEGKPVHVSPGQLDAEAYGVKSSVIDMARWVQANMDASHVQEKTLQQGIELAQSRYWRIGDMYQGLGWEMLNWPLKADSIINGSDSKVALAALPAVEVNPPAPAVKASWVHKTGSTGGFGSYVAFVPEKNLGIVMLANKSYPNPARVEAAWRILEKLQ
Experimental: A. Isolation of the β-lactamases
Various β-lactamases can be isolated from penicillin- or cephalosporin-resistant bacterial strains such as Klebsiella pneumoniae NCTC 418, Proteus vulgaris 1028, Bacillus licheniformis 749/C, Escherichia coli SN01 and Citrobacter freundii 1203. For this purpose, the corresponding strains are cultivated in Tryptic Soy Broth (Difco) and harvested by centrifugation in the last logarithmic growth phase (when necessary 50-100 mg/l of ampicillin are added to the medium towards the end of the log-phase in order to induce the β-lactamase). The thus-obtained bacterial mass is treated with 20 mM Tris-HCl buffer (pH 7.0); the cells are broken open with a French press while cooling. The mixture is centrifuged (20,000 r/min.) for 20-30 minutes and a clear crude extract is obtained.
B. Determination of the β-lactamase activity
The determination of the activity of the isolated β-lactamases can be carried out according to the method of O'Callaghan, C. H. et al. [Antimicr. Ag. Chemother., 1, 283-288 (1972)] using the chromogenic cephalosporin nitrocefin (87/312 from Glaxo). The requisite test batch contains per ml of water: 50 mM phosphate buffer (pH 7.0), 0.1 mM nitrocefin and sufficient enzyme (β-lactamase) to achieve a ΔA/min. of about 0.1. The cleavage of the substrate, which is accompanied by a change in colour, is effected at 37° C. and is followed quantitatively at 482 nm using a spectral photometer.
C. Determination of the β-lactamase-inhibiting activity of the compounds of general formula I
The above-described cleavage of the chromogenic substrate by β-lactamases (test B.) can be inhibited by the addition of compounds of general formula I (inhibitors). […] As a measurement for the affinity of the particular tested inhibitor to the β-lactamase, which is a measurement of the strength of the inhibitor, there serves that concentration which inhibits by 50% (IC 50 in nM) the cleavage of the substrate (nitrocefin) effected under the above test conditions (test B) in the absence of an inhibitor. […] The determination of the IC50 was effected by means of a graph.
(Test organism: Citrobacter freundii)

[1] = IC 50 nM, isolated β-lactamase of Citrobacter freundii, substrate nitrocefin 0.1 mM, 15 minutes pre-incubation with inhibitor, 37° C., pH 7.0

NC(C(=O)N1CC[C@@H]2[C@H]1C(=O)N2S(=O)(=O)O)c1cccc(O)c1 (mixture of isomers) [6(q), (1S,5R)-2-[DL-2-(m-Hydroxyphenyl)glycyl]-7-oxo-2,6-diazabicyclo[3.2.0]heptane-6-sulphonic acid]
MIC (Citrobacter freundii): 2 µg/mL
IC50 (β-lactamase): 375 nM

NC(C(=O)N1CC[C@@H]2[C@H]1C(=O)N2S(=O)(=O)O)c1ccc(O)cc1 (mixture of isomers) [6(s), (1S,5R)-2-[R,S-Amino-(4-hydroxyphenyl)-acetyl]-7-oxo-2,6-diazabicyclo[3.2.0]heptane-6-sulphonic acid sodium salt]
MIC (Citrobacter freundii): 4 µg/mL
IC50 (β-lactamase): 584 nM

NC(C(=O)N1CC[C@@H]2[C@H]1C(=O)N2S(=O)(=O)[O-])c1ccccc1F.[Na+] (mixture of isomers) [8(c), (1S,5R)-2-[DL-2-(o-Fluorophenyl)glycyl]-7-oxo-2,6-diazabicyclo[3.2.0]heptane-6-sulphonic acid sodium salt]
MIC (Citrobacter freundii): 2 µg/mL
IC50 (β-lactamase; [1]): 120 nM

O=C1SCCC1NC(=O)N1CC[C@@H]2[C@H]1C(=O)N2S(=O)(=O)O (mixture of isomers) [17(j), (1S,5R)-7-Oxo-2-(R,S)-(2-oxo-3-tetrahydrothienyl-carbamoyl)-2,6-diazabicyclo[3.2.0]heptane-6-sulphonic acid sodium salt]
MIC (Citrobacter freundii): 2 µg/mL
IC50 (β-lactamase): 79 nM

O=C(NC1CCS(=O)(=O)C1)N1CC[C@@H]2[C@H]1C(=O)N2S(=O)(=O)[O-].[Na+] (mixture of isomers) [17(x), (1S,5R)-2-[(R) and (S)-1,1-Dioxo-tetrahydrothiophen-3-ylcarbamoyl]-7-oxo-2,6-diaza-bicyclo[3.2.0]heptane-6-sulfonic acid sodium salt]
MIC (Citrobacter freundii): 2 µg/mL
IC50 (β-lactamase; [1]): 199 nM

O=C(NCC1CCCO1)N1CC[C@@H]2[C@H]1C(=O)N2S(=O)(=O)[O-].[Na+] (mixture of isomers) [17(y), (1S,5R)-2-[(R) and (S)-Tetrahydrofuran-2-ylmethylcarbamoyl]-7-oxo-2,6-diaza-bicyclo[3.2.0]heptane-6-sulfonic acid sodium salt]
MIC (Citrobacter freundii): 1 µg/mL
IC50 (β-lactamase; [1]): 238 nM

NC(C(=O)N1CC[C@@H]2[C@H]1C(=O)N2S(=O)(=O)O)c1cccs1 (single isomer, unassigned) [5(e), (1S,5R)-2-[(R or S)-α-Amino-(2-thienyl)acetyl]-7-oxo-2,6-diazabicyclo[3.2.0]heptane-6-sulphonic acid]
MIC (Citrobacter freundii): 2 µg/mL
IC50 (β-lactamase): 85 nM

CC(=O)NC(C(=O)N1CC[C@@H]2[C@H]1C(=O)N2S(=O)(=O)O)c1ccccc1 (single isomer, unassigned) [5(g), (1S,5R)-2-[D- or L-N-Acetyl-2-phenylglycyl]-7-oxo-2,6-diazabicyclo[3.2.0]-heptane-6-sulphonic acid sodium salt]
MIC (Citrobacter freundii): 8 µg/mL
IC50 (β-lactamase): 150 nM

N[C@@H](C(=O)N1CC[C@@H]2[C@H]1C(=O)N2S(=O)(=O)O)c1ccccc1 [4(b), (1S,5R)-7-Oxo-2-(D-2-phenylglycyl)-6-2,6-diazabicyclo[3.2.0]heptane-6-sulphonic acid]
MIC (Citrobacter freundii): 2 µg/mL
IC50 (β-lactamase): 250 nM

N[C@H](C(=O)N1CC[C@@H]2[C@H]1C(=O)N2S(=O)(=O)O)c1ccccc1 [4(d), (1S,5R)-7-Oxo-2-(L-2-phenylglycyl)-2,6-diazabicyclo[3.2.0]heptane-6-sulphonic acid]
MIC (Citrobacter freundii): 2 µg/mL
IC50 (β-lactamase): 275 nM

N[C@H](Cc1ccccc1)C(=O)N1CC[C@@H]2[C@H]1C(=O)N2S(=O)(=O)O [4(f), (1S,5R)-7-Oxo-2-(3-phenyl-D-alanyl)-2,6-diazabicyclo[3.2.0]heptane-6-sulphonic acid]
MIC (Citrobacter freundii): 4 µg/mL
IC50 (β-lactamase): 280 nM

O=C(CNc1ccccc1)N1CC[C@@H]2[C@H]1C(=O)N2S(=O)(=O)[O-].[Na+] [5(b), (1S,5R)-7-Oxo-2-(N-phenylglycyl)-2,6-diazabicyclo[3.2.0]heptane-6-sulphonic acid sodium salt]
MIC (Citrobacter freundii): 2 µg/mL
IC50 (β-lactamase; [1]): 110 nM

Nc1cccc(NCC(=O)N2CC[C@@H]3[C@H]2C(=O)N3S(=O)(=O)O)c1 [5(i), (1S,5R)-2-[N-(m-Aminophenyl)glycyl] -7-oxo-2,6-diazabicyclo[3.2.0]heptane-6-sulphonic acid]
MIC (Citrobacter freundii): 2 µg/mL
IC50 (β-lactamase): 115 nM

Cn1nnnc1SCC(=O)N1CC[C@@H]2[C@H]1C(=O)N2S(=O)(=O)[O-].[Na+] [5(j), (1S,5R)-2-[[(1-Methyl-1H-tetrazol-5-yl)-thio]acetyl]-7-oxo-2,6-diazabicyclo[3.2.0]heptane-6-sulphonic acid sodium salt]
MIC (Citrobacter freundii): 0.5 µg/mL
IC50 (β-lactamase; [1]): 23 nM

O=C(COn1nnc2ccccc21)N1CC[C@@H]2[C@H]1C(=O)N2S(=O)(=O)[O-].[Na+] [5(k), (1S,5R)-2-[[1H-Benzotriazol-1-yl)oxylacetyl]-7-oxo-2,6-diazabicyclo[3.2.0]-heptane-6-sulphonic acid sodium salt]
MIC (Citrobacter freundii): 2 µg/mL
IC50 (β-lactamase; [1]): 73 nM

CC(C)n1nnc(CC(=O)N2CC[C@@H]3[C@H]2C(=O)N3S(=O)(=O)[O-])n1.[Na+] [5(l), (1S,5R)-2-[(2-Isopropyl-2H-tetrazol-5-yl)-acetyl]-7-oxo-2,6-diazabicyclo[3.2.0]heptane-6-sulphonic acid sodium salt]
MIC (Citrobacter freundii): 4 µg/mL
IC50 (β-lactamase; [1]): 860 nM

Cc1nnc(SCC(=O)N2CC[C@@H]3[C@H]2C(=O)N3S(=O)(=O)[O-])s1.[Na+] [5(m), (1S,5R)-2-[[(5-Methyl-1,3,4-thiadiazol-2-yl)thio]acetyl]-7-oxo-2,6-diazabicyclo[3.2.0]heptane-6-sulphonic acid sodium salt]
MIC (Citrobacter freundii): 0.5 µg/mL
IC50 (β-lactamase; [1]): 24 nM

O=C(COc1ccc(O)nn1)N1CC[C@@H]2[C@H]1C(=O)N2S(=O)(=O)[O-].[Na+] [5(p), (1S,5R)-2-[(6-Hydroxy-pyridazin-3-yloxy)-acetyl]-7-oxo-2,6-diazabicyclo[3.2.0]heptane-6-sulfonic acid sodium salt]
MIC (Citrobacter freundii): 1 µg/mL
IC50 (β-lactamase; [1]): 178 nM

O=C(CSc1nnnn1-c1ccccc1)N1CC[C@@H]2[C@H]1C(=O)N2S(=O)(=O)O [5(q), (1S,5R)-7-Oxo-2-[(1-phenyl-tetrazol)-5-ylsulfanyl-acetyl]-2,6-diazabicyclo[3.2.0]heptane-6-sulfonic acid sodium salt]
MIC (Citrobacter freundii): 2 µg/mL
IC50 (β-lactamase): 5 nM

N[C@@H](C(=O)N1CC[C@@H]2[C@H]1C(=O)N2S(=O)(=O)O)c1ccc(O)cc1 [6(d), (1S,5R)-2-[D-2-(p-Hydroxyphenyl)glycyl]-7-oxo-2,6-diazabicyclo[3.2.0]-heptane-6-sulphonic acid]
MIC (Citrobacter freundii): 2 µg/mL
IC50 (β-lactamase): 500 nM

CCN(CC)CC.O=C(/C=C/c1c[nH]c2ccccc12)N1CC[C@@H]2[C@H]1C(=O)N2S(=O)(=O)O [6(f), (1S,5R)-2-[(E)-3-(3-Indolyl)acryloyl]-7-oxo-2,6-diazabicyclo[3.2.0]heptane-6-sulphonic acid triethylamine salt (1:1)]
MIC (Citrobacter freundii): 4 µg/mL
IC50 (β-lactamase; isolated β-lactamase of Citrobacter freundii, substrate nitrocefin 0.1 mM, 15 minutes pre-incubation with inhibitor, 37° C., pH 7.0, read-out: IC 50 nM): 11 nM

N[C@@H](Cc1c[nH]c2ccccc12)C(=O)N1CC[C@@H]2[C@H]1C(=O)N2S(=O)(=O)O [6(h), (1S,5R)-7-Oxo-2-L-tryptophanyl-2,6-diazabicyclo[3.2.0]heptane-6-sulphonic acid]
MIC (Citrobacter freundii): 1 µg/mL
IC50 (β-lactamase): 6 nM
